# Where a name gives a salt, the structure may show the parent alone.
row,Structure (SMILES),melting point
1,Cc1ccc2[nH]c(=O)n(CCCN3C4CCC3CN(c3ccc(Cl)cc3)C4)c(=O)c2c1 (as salt: hydrochloride),> 300 °C
2,O=c1[nH]c2c(Cl)cccc2c(=O)n1CCCN1C2CCC1CN(c1ccc(Cl)cc1)C2 (as salt: maleate),186 to 188 °C
3,O=c1[nH]c2c(Cl)cccc2c(=O)n1CCCN1C2CCC1CN(c1ccc(Cl)c(Cl)c1)C2 (as salt: maleate),205 to 207 °C
4,O=c1[nH]c2ccccc2c(=O)n1CCCN1C2CCC1CN(c1ccc(Cl)c(Cl)c1)C2 (as salt: maleate),105 to 108 °C (dec.)
5,O=c1[nH]c2c(Cl)cccc2c(=O)n1CCCN1C2CCC1CN(c1ccc(F)cc1)C2 (as salt: maleate),173 to 175 °C
6,O=c1[nH]c2ccccc2c(=O)n1CCCN1C2CCC1CN(c1ccc(F)cc1)C2 (as salt: maleate),70 to 74 °C
7,O=c1[nH]c2c(Cl)cccc2c(=O)n1CCCN1C2CCC1CN(c1ccc(C(F)(F)F)cc1)C2 (as salt: maleate),205 to 207 °C
8,O=c1[nH]c2c(Cl)cccc2c(=O)n1CCCCN1C2CCC1CN(c1ccc(Cl)cc1)C2 (as salt: maleate),235 to 238 °C
9,O=c1[nH]c2ccccc2c(=O)n1CCCCN1C2CCC1CN(c1ccc(Cl)cc1)C2 (as salt: maleate),187 to 189 °C
10,"O=c1[nH]c2c(Cl)cccc2c(=O)n1CCCN1CC2CC1CN2c1ccc(Cl)cc1 (stereo not shown) (as salt: maleate) [Example 41, 8-CHLORO-3-{3-[5-(4-CHLORO-PHENYL)-2,5-DIAZA-BICYCLO[2.2.1]HEPT-2-YL]-PROPYL}-1H-QUINAZOLINE-2,4-DIONE]",205 to 207 °C
11,"O=c1[nH]c2ccccc2c(=O)n1CCCN1CC2CCC1CN2c1ccc(F)cc1 (stereo not shown) (as salt: maleate) [Example 49, 3-{3-[5-(4-FLUORO-PHENYL)-2,5-DIAZA-BICYCLO[2.2.2]OCT-2-YL]-PROPYL}-1H-QUINAZOLINE-2,4-DIONE]",95 to 98 °C (dec.)

# Next, values leading:
row,melting point,Structure (SMILES)
1,217 to 219 °C,Cc1ccc(N2CC3CCC(C2)N3CCCn2c(=O)[nH]c3c(Cl)cccc3c2=O)c(C)c1 (as salt: maleate)
2,149 to 151 °C,Cc1ccc(N2CC3CCC2CN3CCCn2c(=O)[nH]c3c(Cl)cccc3c2=O)c(C)c1 (stereo not shown) (as salt: maleate)
3,168 to 170 °C,"O=c1[nH]c2c(Cl)cccc2c(=O)n1CCCN1CC2CC1CN2c1cccc(F)c1 (stereo not shown) (as salt: maleate) [Example 42, 8-CHLORO-3-{3-[5-(3-FLUORO-PHENYL)-2,5-DIAZA-BICYCLO[2.2.1]HEPT-2-YL]-PROPYL}-1H-QUINAZOLINE-2,4-DIONE]"
4,186 to 188 °C,"O=c1[nH]c2c(Cl)cccc2c(=O)n1CCCN1CC2CCC1CN2c1ccc(F)cc1 (stereo not shown) (as salt: maleate) [Example 46, 8-CHLORO-3-{3-[5-(4-FLUORO-PHENYL)-2,5-DIAZA-BICYCLO[2.2.2]OCT-2-YL]-PROPYL}-1H-QUINAZOLINE-2,4-DIONE]"
5,68 to 73 °C (dec.),"O=c1[nH]c2c(Cl)cccc2c(=O)n1CCCN1CC2CCC1CN2c1ccc(Cl)c(Cl)c1 (stereo not shown) (as salt: maleate) [Example 48, 8-CHLORO-3-{3-[5-(3,4-DICHLORO-PHENYL)-2,5-DIAZA-BICYCLO[2.2.2]OCT-2-YL]-PROPYL}-1H-QUINAZOLINE-2,4-DIONE]"

# — patent US6552015B2, “Azabicycloalkane derivatives and therapeutic uses thereof” (Pfizer Inc., priority 2000, dated 2003)
